The record followed here is patent US12630632B2, “Bispecific HER2 and CD3 binding molecules” (Memorial Sloan Kettering Cancer Center, priority 2017, dated 2026).

“Also recorded” adds a separate entry of the source.

Data set [1] deals with SCCHN cell line PCI-30. The data set is described as follows: Cell proliferation assay (WST-8). The data set is classed as cell-based, human. The note with it: 10 nM kinase inhibitors, 10 μg/mL antibodies. The protocol:
(§1) Cell proliferation was determined using an ELISA plate reader and the WST-8 kit (Dojindo technologies) following the manufacturer's instructions and using the formula: % survival rate=(Sample-Background)/(Negative control-Background). Lapatinib (MSKCC pharmacy) was ground using a mortar and pestle and suspended in DMSO as previously described. To determine statistical significance, the results were analyzed using one-way ANOVA using Prism 6.0.
(§2) For cell proliferation assays, 5,000 tumor cells were plated using RPMI-1640 supplemented with 10% FBS in a 96 well plate for 36 hours before being treated with lapatinib or the antibodies at the specified concentrations. Cell proliferation was determined using an ELISA plate reader and the WST-8 kit (Dojindo technologies) following the manufacturer's instructions and using the formula: % survival rate=(Sample-Background)/(Negative control-Background). Lapatinib (Memorial Sloan Kettering Cancer Center pharmacy) was ground using a mortar and pestle and suspended in DMSO as previously described (Chen et al., 2012, Molecular cancer therapeutics 11:660-669). To determine statistical significance, the results were analyzed using one-way ANOVA using Prism 6.0.
(§3) For tumor cell proliferation, 5,000 tumor cells were plated using RPMI-1640 supplemented with 10%, fetal bovine serum (“FBS”) in a 96 well plate for 36 hours before being treated with—kinase inhibitors or the antibodies at the specified concentration. Cell proliferation was determined using the cell counting WST-8 kit (Dojindo technologies) following the manufacturer's instructions and using the formula: % survival rate=(Sample-Background)(Negative control-Background). Lapatinib was ground using a mortar and pestle and suspended in DMSO as previously described (Chen et al., Molecular cancer therapeutics 2012; 11:660-9). To determine statistical significance, the results were analyzed using one-way ANOVA using Prism 6.0.
For orientation: Tetrazolium dyes change colour on reduction, which living cells bring about.

The test system of data set [2] is cervical carcinoma HeLa cells. The data set is described as follows: Cell proliferation assay (WST-8). It is filed as cell-based, human. The note with it: 10 nM kinase inhibitors, 10 μg/mL antibodies. The protocol:
as §1, §2, §3

The test system of data set [3] is osteosarcoma cell line U2OS. The data set is described as follows: Cell proliferation assay (WST-8). The data set is classed as cell-based, human. As to conditions: 10 nM kinase inhibitors, 10 μg/mL antibodies. As for the experimental part:
as §1, §2, §3

The subject of data set [4] is HCC1954 breast cancer xenograft. The data set is described as follows: s.c. tumor plus i.v. effector cells xenograft model. It is filed as in vivo, DKO mice. As to conditions: i.v. PBMC 7.5×10^6 once per week for 2 weeks, 100 μg i.v. twice per week for 4 weeks (Example 4).
Text: Three humanized mouse xenograft models were used: (1) intravenous tumor plus intravenous effector cells; (2) subcutaneous tumor plus subcutaneous effector cells; and (3) subcutaneous tumor plus intravenous effector cells. Subcutaneous xenografts were created with 5×10^6 cells suspended in Matrigel (Corning Corp, Tewksbury MA) and implanted in the flank of DKO mice. Effector peripheral blood mononuclear cell (PBMC) cells were purified from buffy coats purchased from the New York Blood Center. Prior to every experimental procedure, PBMCs were analyzed for their percentage of CD3, CD4, CD8 and CD56 cells to ensure consistency. […] Tumor size was measured using (1) hand-held TM900 scanner (Pieira, Brussels, BE); (2) Calipers; or (3) bioluminescence. Bioluminescence imaging was conducted using the Xenogen In Vivo Imaging System (IVIS) 200 (Caliper LifeSciences). Briefly, mice were injected intravenously with 0.1 mL solution of D-luciferin (Gold Biotechnology; 30 mg/mL stock in PBS). […]
Effector PBMC cells and ATCs were prepared as described above. Prior to every experimental procedure, PBMCs and ATCs were analyzed by FACS for their percentage of CD3, CD4, CD8 and CD56 cells to ensure consistency. […] Tumor size was measured using 1) hand-held TM900 scanner (Pieira, Brussels, BE), 2) Calipers, or 3) Bioluminescence. […]
Data set [5] deals with HER2(+) SCCHN PCI-13 cells. The data set is described as follows: Blocking of HER2-BsAb T-cell cytotoxicity by trastuzumab or anti-CD3. As to conditions: for effect of blocking antibody on HER2-BsAb induced T cell cytotoxicity: HER2-positive cells pre-incubated with blocking antibody (Examples 1, 2). The data set is classed as cell-based, human. As for the experimental part: (§4) The ^51Cr release assay was performed with effector T cells cultured in vitro in the presence of anti-CD3 and anti-CD28 for about 14 days. All target tumor cells were harvested with 2 mM EDTA in PBS, labeled with ^51Cr (Amersham, Arlington Height, IL) at 100 μCi/106 cells at 37° C. for 1 h. 5000 target cells/well were mixed with 50,000 effector cells (E:T=10:1) and BsAb antibodies in 96-well polystyrene round-bottom plates (BD Biosciences) to a final volume of 250 μl/well. The plates were incubated at 37° C. for 4 h. The released ^51Cr in supernatant was counted in a γ-counter (Packed Instrument, Downers Grove, IL). Percentage of specific release was calculated using the formula: (experimental cpm−background cpm)/(total cpm−background cpm)×100%, where cpm represented counts per minute of ^51Cr released. Total release was assessed by lysis with 10% SDS (Sigma, St Louis, Mo), and background release was measured in the absence of effector cells. EC50 was calculated using SigmaPlot software.

The subject of data set [6] is HeLa. The data set is described as follows: T-cell cytotoxicity, 51Cr release assay. It is filed as cell-based, human. As to conditions: HeLa pre-treated with lapatinib. As for the experimental part: as §4
Cell cytotoxicity was assayed by ^51Cr release as previously described (Xu et al., Cancer immunology research 2015; 3:266-77), and EC50 was calculated using SigmaPlot software. Effector PBMC cells were purified from buffy coats purchased from the New York Blood Center. […]

In data set [7] the test system is naïve T cells. The data set is described as follows: T cell proliferation (WST-8). It is filed as cell-based, human. The note with it: 67 nM antibody, 6 days. As for the experimental part: For T cell proliferation, naïve T cells were purified from human PBMC using Pan T cell isolation kit (Miltenyi Biotec). 2×10^5 purified T cells were mixed with different antibodies in 96-well cell culture plate to a final volume of 250 μl/well. T cells were cultured and maintained in RPMI-1640 supplemented with 10% FBS in 37° C. for 6 days. T cell proliferation was quantitated using the WST-8 kit as described above.

Take `C#Cc1cccc(Nc2ncnc3cc(OCCOC)c(OCCOC)cc23)c1` [erlotinib]: the “sensitivity in proliferation assay” value in data set [1] was “resistant”; in data set [2], “resistant”; in data set [2] (listed as Erlotinib) it was “pan-resistant”; in data set [3] it was “minimal sensitivity; also recorded: resistant”.

As to Pembrolizumab, in data set [4], the tumor volume result was “no effect”.

For the compound OKT3: CD3 specific blocking mAb, the “effect of blocking antibody on HER2-BsAb induced T cell cytotoxicity” value in data set [5] was “prevented”.

For `CS(=O)(=O)CCNCc1ccc(-c2ccc3ncnc(Nc4ccc(OCc5cccc(F)c5)c(Cl)c4)c3c2)o1` [lapatinib], the “effect of pretreatment on sensitivity to HER2-BsAb mediated cytotoxicity” value in data set [6] is listed as “enhances”. Besides, the “sensitivity in proliferation assay” value in data set [1] is reported as “resistant”; in data set [2], “no effect on cell proliferation; also recorded: resistant”; in data set [2] (listed as Lapatinib) it was “pan-resistant”; in data set [3], “resistant”; in data set [3] (listed as Lapatinib), “minimal sensitivity”.

As for “huOKT3: humanized anti-CD3 OKT3 IgG1, bivalent”, the “effect of blocking antibody on HER2-BsAb induced T cell cytotoxicity” value in data set [5] is listed as “block”. Further, the “effect of blocking antibody on HER2-BsAb T-cell cytotoxicity” value in data set [5] (PCI-13, 0.1 μg/mL HER2-BsAb, 10 μg/mL blocking antibodies) is listed as “prevented; also recorded: abrogates”. For the same compound, the “T cell proliferation in the absence of tumor targets” value in data set [7] is “robust T cell proliferation”.

As for Atezolizumab, the tumor volume entry in data set [4] is “no effect”.

In the case of `CCOc1cc2ncc(C#N)c(Nc3ccc(OCc4ccccn4)c(Cl)c3)c2cc1NC(=O)/C=C/CN(C)C` [neratinib], the “sensitivity in proliferation assay” value is reported as “resistant” in data set [1], “resistant” in data set [2], “pan-resistant” in data set [2] (listed as Neratinib) and “minimal sensitivity; also recorded: resistant” in data set [3].
